According to patent US11427553B2, “Dihydrooxadiazinones” (Bayer Aktiengesellschaft, priority 2017, dated 2022):
pIC50: −log10 of the molar value.

Legend:
[1] = target: human full length PDE3A (Homo sapiens (Human), UniProt Q14432); assay: Assay 4 PDE3A enzyme inhibition (3H-cAMP SPA); format: biochemical; details: Sf9 cell extract
Experimental: Assay 4 Method for PDE3A Enzyme Inhibition
(§1) The commercially available 3H-cAMP Scintillation Proximity Assay (SPA, Perkin Elmer) system was used for enzyme inhibition studies. For the determination of the in vitro effect of example compounds on the PDE3A reactions 2 μl of the respective example compound solution in DMSO (serial dilutions) were placed in wells of microtiter plates (Isoplate-96/200W; Perkin Elmer). 50 μl of a dilution of PDE3A cell extract from Sf9 cells overexpressing human full length PDE3A (SB Drug Discovery, UK) in buffer A (50 mM Tris/HCl pH 7.5, 8.3 mM MgCl2, 1.7 mM EDTA, 0.2% BSA) was added. The dilution of the PDE3A cell extract was chosen such that the reaction kinetics was linear and less than 70% of the substrate was consumed (typical dilution 1:5000). The reaction was started by addition of 50 μl (0.025 μCi) of 1:2000 in buffer A w/o BSA diluted substrate [8-3H]adenosine 3′, 5′-cyclic phosphate (1 μCi/μl; Perkin Elmer). After incubation at room temperature for 60 min, the reaction was stopped by addition of 25 μl of a suspension containing 18 mg/ml yttrium scintillation proximity beads (Perkin Elmer) in water. The microtiter plates were sealed and measured in a Microbeta scintillation counter (PerkinElmer Wallac). IC50 values were determined from sigmoidal curves by plotting percentage PDE3A activity vs log compound concentration.

[2] = system: HeLa cells; assay: Assay 1 cell proliferation measurement (CTG, 72 h), HeLa; format: cell-based, human; details: Homo sapiens, HeLa; Assay 1, 72 h, Cell Titer Glo; read-out: HeLa IC50 [nM] (Cervical cancer)
Experimental: Cell Proliferation Measurement
The antiproliferative activity of the compounds of the general formula (I) was examined in vitro in human cancer cells. For this purpose, the appropriate number of cells (Hela: 800; SK-MEL-3: 1000; A549: 800) were plated in 384-well plates with appropriate growth medium ((A549: DMEM/Ham's F12 (Biochrom; #FG 4815 with stabile Glutamine), FCS 10% final (Biochrom; #S 0415); Hela: DMEM/Ham's F12 (Biochrom; #FG 4815 with stabile Glutamine), FCS 10% final (Biochrom; #S 0415); SK-MEL-3: McCoy's 5A (Biochrom; #F 1015), FCS 10% final (Biochrom; #S 0415), L-Alanyl-L-Glutamine final: 2 mM, (Biochrom; #K 0302)) and incubated at 37° C. overnight. After 24 h, cells on one plate (0 h plate) were treated with 30 μl/cavity of CTG solution (Promega Cell Titer Glo (catalogue #G755B and G756B)) and incubated at room temperature for 10 min, and luminescence was measured by means of a VICTOR V (Perkin Elmer), in order to determine cell viability on commencement of treatment. The cells on the test plate were treated with the compounds of the general formula (I) as and incubated at 37° C. for 72 h. The compounds were added to the cells by means of an HP D300 digital dispenser in a 10-step 2.5-fold dilution series generally starting at a maximum final drug concentration of 100 nM. As control, the cells were treated with vehicle (DMSO at 0.3% final concentration). After 72 h, the cells were treated with 30 μl/cavity of CTG solution (Promega Cell Titer Glo (catalogue #G755B and G756B)) and incubated at room temperature for 10 min. and luminescence was measured by means of a VICTOR V (Perkin Elmer), in order to determine cell viability at the end of treatment. The percentage effect on cell growth and the IC50 derived therefrom were determined for each test substance using the values from the 0 h plate […] and the DMSO control […]. The IC50 values were calculated using a 4-parameter fit.

[3] = target: human full length PDE3B (Homo sapiens (Human), UniProt Q13370); assay: Assay 5 PDE3B enzyme inhibition (3H-cAMP SPA); format: biochemical; details: Sf9 cell extract
Experimental: as §1, with “PDE3B” for “PDE3A”, “1:6000).” for “1:5000).”

human full length PDE3A, sequence (Q14432 whole entry): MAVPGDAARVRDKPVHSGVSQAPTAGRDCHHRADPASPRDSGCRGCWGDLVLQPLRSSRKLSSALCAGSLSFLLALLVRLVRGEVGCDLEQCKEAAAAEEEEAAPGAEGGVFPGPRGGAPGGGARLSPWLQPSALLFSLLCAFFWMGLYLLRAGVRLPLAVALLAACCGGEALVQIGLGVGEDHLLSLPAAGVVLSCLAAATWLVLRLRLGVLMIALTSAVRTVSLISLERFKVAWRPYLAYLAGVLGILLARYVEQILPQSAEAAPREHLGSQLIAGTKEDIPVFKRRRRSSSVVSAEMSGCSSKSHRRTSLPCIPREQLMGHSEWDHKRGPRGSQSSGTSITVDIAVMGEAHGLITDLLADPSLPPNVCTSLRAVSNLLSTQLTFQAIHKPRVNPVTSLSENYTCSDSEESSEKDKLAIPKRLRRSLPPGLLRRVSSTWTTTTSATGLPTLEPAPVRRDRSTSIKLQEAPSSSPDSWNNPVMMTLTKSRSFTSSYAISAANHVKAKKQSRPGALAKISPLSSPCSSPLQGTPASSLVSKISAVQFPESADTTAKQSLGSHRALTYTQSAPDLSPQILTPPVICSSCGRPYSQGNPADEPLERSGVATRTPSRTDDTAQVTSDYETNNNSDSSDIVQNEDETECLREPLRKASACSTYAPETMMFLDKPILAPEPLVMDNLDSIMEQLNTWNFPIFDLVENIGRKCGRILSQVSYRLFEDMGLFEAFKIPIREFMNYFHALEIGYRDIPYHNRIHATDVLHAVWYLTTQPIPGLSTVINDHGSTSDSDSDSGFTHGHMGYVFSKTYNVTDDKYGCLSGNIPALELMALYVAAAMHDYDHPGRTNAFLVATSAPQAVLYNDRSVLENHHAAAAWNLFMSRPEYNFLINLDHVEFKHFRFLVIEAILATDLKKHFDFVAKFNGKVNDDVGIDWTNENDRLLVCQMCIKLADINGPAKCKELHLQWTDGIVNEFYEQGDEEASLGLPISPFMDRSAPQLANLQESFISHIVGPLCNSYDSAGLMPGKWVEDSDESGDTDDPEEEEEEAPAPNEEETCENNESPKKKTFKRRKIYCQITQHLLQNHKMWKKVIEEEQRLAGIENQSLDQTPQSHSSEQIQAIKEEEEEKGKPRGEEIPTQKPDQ
human full length PDE3B, sequence (Q13370 whole entry): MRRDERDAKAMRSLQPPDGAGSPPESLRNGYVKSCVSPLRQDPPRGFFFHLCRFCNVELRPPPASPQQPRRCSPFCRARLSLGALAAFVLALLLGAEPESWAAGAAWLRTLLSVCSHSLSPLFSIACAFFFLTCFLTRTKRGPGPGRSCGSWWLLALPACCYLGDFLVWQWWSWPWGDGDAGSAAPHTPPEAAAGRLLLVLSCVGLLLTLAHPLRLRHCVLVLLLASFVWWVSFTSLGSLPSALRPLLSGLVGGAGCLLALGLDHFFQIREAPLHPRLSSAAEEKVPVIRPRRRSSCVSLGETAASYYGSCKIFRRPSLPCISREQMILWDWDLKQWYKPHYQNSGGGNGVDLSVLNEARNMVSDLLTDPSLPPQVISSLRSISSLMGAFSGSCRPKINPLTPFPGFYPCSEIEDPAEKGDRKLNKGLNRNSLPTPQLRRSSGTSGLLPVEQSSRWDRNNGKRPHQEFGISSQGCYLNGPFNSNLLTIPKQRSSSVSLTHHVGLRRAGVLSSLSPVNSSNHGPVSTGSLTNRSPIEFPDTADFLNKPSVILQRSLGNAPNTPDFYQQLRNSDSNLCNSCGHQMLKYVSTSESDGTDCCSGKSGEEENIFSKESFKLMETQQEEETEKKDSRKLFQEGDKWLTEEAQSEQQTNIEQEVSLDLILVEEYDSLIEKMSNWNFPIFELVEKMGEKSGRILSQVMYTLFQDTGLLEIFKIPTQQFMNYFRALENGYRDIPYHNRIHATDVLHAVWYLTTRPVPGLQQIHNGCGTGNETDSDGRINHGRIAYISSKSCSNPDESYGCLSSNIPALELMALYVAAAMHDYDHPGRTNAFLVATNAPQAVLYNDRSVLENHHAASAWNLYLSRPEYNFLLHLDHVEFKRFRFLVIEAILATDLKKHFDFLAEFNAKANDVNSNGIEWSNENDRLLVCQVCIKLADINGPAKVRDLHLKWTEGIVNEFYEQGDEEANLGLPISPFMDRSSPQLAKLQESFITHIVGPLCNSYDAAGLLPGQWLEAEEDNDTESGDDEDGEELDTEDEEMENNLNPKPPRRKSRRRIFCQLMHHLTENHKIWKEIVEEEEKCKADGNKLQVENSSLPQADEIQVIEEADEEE

Structure (SMILES)	pIC50 [1]	IC50 [2]	pIC50 [3]
O=C1NN=C(c2ccc(NCc3ncccn3)c(C(F)(F)F)c2)CO1 [Example 244, 5-[4-{[(Pyrimidin-2-yl)methyl]amino}-3-(trifluoromethyl)phenyl]-3,6-dihydro-2H-1,3,4-oxadiazin-2-one]	6.92	3 nM	6.82
C[C@@H](CCO)Nc1ccc(C2=NNC(=O)OC2)cc1C(F)(F)F [Example 246, 5-[4-{[(2S)-4-Hydroxybutan-2-yl]amino}-3-(trifluoromethyl)phenyl]-3,6-dihydro-2H-1,3,4-oxadiazin-2-one]	7.02	12 nM	6.68
O=C1NN=C(c2ccc(N3CC4(C3)CS(=O)(=O)C4)c(C(F)(F)F)c2)CO1 [Example 255, 6-[4-(2-Oxo-3,6-dihydro-2H-1,3,4-oxadiazin-5-yl)-2-(trifluoromethyl)phenyl]-2λ^6-thia-6-azaspiro[3.3]heptane-2,2-dione]	7.00	5 nM	7.12
O=C1NN=C(c2ccc(N3CC4CC4C3)c(C(F)(F)F)c2)CO1 (stereo not drawn) [Example 252, 5-[4-(3-Azabicyclo[3.1.0]hexan-3-yl)-3-(trifluoromethyl)phenyl]-3,6-dihydro-2H-1,3,4-oxadiazin-2-one]	6.96	1 nM	7.07
O=C1NN=C(c2ccc(NCc3cc[nH]n3)c(C(F)(F)F)c2)CO1 [Example 237, 5-[4-{[(1H-Pyrazol-3-yl)methyl]amino}-3-(trifluoromethyl)phenyl]-3,6-dihydro-2H-1,3,4-oxadiazin-2-one]	6.92	0.4 nM	6.85
CC(C)(CO)CNc1ccc(C2=NNC(=O)OC2)cc1C(F)(F)F [Example 231, 5-{4-[(3-Hydroxy-2,2-dimethylpropyl)amino]-3-(trifluoromethyl)phenyl}-3,6-dihydro-2H-1,3,4-oxadiazin-2-one]	7.00	2 nM	6.96
O=C1NN=C(c2ccc(NCC3(CO)CCC3)c(C(F)(F)F)c2)CO1 [Example 249, 5-[4-({[1-(Hydroxymethyl)cyclobutyl]methyl}amino)-3-(trifluoromethyl)phenyl]-3,6-dihydro-2H-1,3,4-oxadiazin-2-one]	7.00	1 nM	6.96
O=C1NN=C(c2ccc(N3CC[C@H]3CO)c(C(F)(F)F)c2)CO1 [Example 250, 5-{4-[(2S)-2-(Hydroxymethyl)azetidin-1-yl]-3-(trifluoromethyl)phenyl}-3,6-dihydro-2H-1,3,4-oxadiazin-2-one]	6.92	2 nM	6.92
O=C1CCC(CNc2ccc(C3=NNC(=O)OC3)cc2C(F)(F)F)CN1 (racemic) [Example 247, (rac)-5-[4-{[(6-Oxopiperidin-3-yl)methyl]amino}-3-(trifluoromethyl)phenyl]-3,6-dihydro-2H-1,3,4-oxadiazin-2-one]	7.19	10 nM	6.74
COC(C)CNc1ccc(C2=NNC(=O)OC2)cc1C(F)(F)F (racemic) [Example 242, (rac)-5-{4-[(2-Methoxypropyl)amino]-3-(trifluoromethyl)phenyl}-3,6-dihydro-2H-1,3,4-oxadiazin-2-one]	7.04	2 nM	6.89
O=C1NN=C(c2ccc(N3CCC(O)CC3)c(C(F)(F)F)c2)CO1 [Example 227, 5-[4-(4-Hydroxypiperidin-1-yl)-3-(trifluoromethyl)phenyl]-3,6-dihydro-2H-1,3,4-oxadiazin-2-one]	7.89	1 nM	8.05
CC[C@@H](CO)Nc1ccc(C2=NNC(=O)OC2)cc1C(F)(F)F [Example 228, 5-[4-{[(2S)-1-Hydroxybutan-2-yl]amino}-3-(trifluoromethyl)phenyl]-3,6-dihydro-2H-1,3,4-oxadiazin-2-one]	6.40	7 nM	6.04
N#CCCCNc1ccc(C2=NNC(=O)OC2)cc1C(F)(F)F [Example 254, 4-[4-(2-Oxo-3,6-dihydro-2H-1,3,4-oxadiazin-5-yl)-2-(trifluoromethyl)anilino]butanenitrile]	7.35	2 nM	7.51
Cn1nccc1CNc1ccc(C2=NNC(=O)OC2)cc1C(F)(F)F [Example 236, 5-[4-{[(1-Methyl-1H-pyrazol-5-yl)methyl]amino}-3-(trifluoromethyl)phenyl]-3,6-dihydro-2H-1,3,4-oxadiazin-2-one]	7.35	4 nM	7.27
NC(=O)C1CCCN(c2ccc(C3=NNC(=O)OC3)cc2C(F)(F)F)C1 (racemic) [Example 230, (rac)-1-[4-(2-Oxo-3,6-dihydro-2H-1,3,4-oxadiazin-5-yl)-2-(trifluoromethyl)phenyl]piperidine-3-carboxamide]	7.24	7 nM	7.00
COCC(O)CNc1ccc(C2=NNC(=O)OC2)cc1C(F)(F)F (racemic) [Example 235, (rac)-5-{4-[(2-Hydroxy-3-methoxypropyl)amino]-3-(trifluoromethyl)phenyl}-3,6-dihydro-2H-1,3,4-oxadiazin-2-one]	6.77	4 nM	6.74
CCOC(C)CNc1ccc(C2=NNC(=O)OC2)cc1C(F)(F)F (racemic) [Example 241, (rac)-5-{4-[(2-Ethoxypropyl)amino]-3-(trifluoromethyl)phenyl}-3,6-dihydro-2H-1,3,4-oxadiazin-2-one]	7.18	6 nM	6.89
O=C1NN=C(c2ccc(NCCn3cccn3)c(C(F)(F)F)c2)CO1 [Example 238, 5-[4-{[2-(1H-Pyrazol-1-yl)ethyl]amino}-3-(trifluoromethyl)phenyl]-3,6-dihydro-2H-1,3,4-oxadiazin-2-one]	7.06	7 nM	6.52
O=C1NN=C(c2ccc(N3CCCC(O)C3)c(C(F)(F)F)c2)CO1 (racemic) [Example 229, (rac)-5-[4-(3-hydroxypiperidin-1-yl)-3-(trifluoromethyl)phenyl]-3,6-dihydro-2H-1,3,4-oxadiazin-2-one]	7.09	1 nM	7.17
O=C1NN=C(c2ccc(N3CC[C@H](O)C3)c(C(F)(F)F)c2)CO1 [Example 234, 5-{4-[(3S)-3-Hydroxypyrrolidin-1-yl]-3-(trifluoromethyl)phenyl}-3,6-dihydro-2H-1,3,4-oxadiazin-2-one]	7.11	2 nM	7.14
